One data set has as its target T1, PPARγ-RXRα heterodimer (Homo sapiens, UniProt P37231).
T1 construct: expressed in transfected cells
T1 sequence (P37231 1-477 isoform P37231-2): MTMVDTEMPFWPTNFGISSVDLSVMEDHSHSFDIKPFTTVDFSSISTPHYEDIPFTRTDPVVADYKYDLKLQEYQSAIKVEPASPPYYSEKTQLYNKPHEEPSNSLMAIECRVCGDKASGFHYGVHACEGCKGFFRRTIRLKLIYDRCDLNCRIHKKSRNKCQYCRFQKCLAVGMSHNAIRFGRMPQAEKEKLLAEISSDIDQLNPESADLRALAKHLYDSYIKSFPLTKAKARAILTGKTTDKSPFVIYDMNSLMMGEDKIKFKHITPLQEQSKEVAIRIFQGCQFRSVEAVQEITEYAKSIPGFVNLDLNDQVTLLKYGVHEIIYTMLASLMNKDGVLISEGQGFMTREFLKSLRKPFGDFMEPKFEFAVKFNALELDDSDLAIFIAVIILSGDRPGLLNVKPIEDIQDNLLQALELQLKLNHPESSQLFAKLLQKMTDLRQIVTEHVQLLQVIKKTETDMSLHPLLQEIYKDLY
T1 sequence (P19793 1-462 partner): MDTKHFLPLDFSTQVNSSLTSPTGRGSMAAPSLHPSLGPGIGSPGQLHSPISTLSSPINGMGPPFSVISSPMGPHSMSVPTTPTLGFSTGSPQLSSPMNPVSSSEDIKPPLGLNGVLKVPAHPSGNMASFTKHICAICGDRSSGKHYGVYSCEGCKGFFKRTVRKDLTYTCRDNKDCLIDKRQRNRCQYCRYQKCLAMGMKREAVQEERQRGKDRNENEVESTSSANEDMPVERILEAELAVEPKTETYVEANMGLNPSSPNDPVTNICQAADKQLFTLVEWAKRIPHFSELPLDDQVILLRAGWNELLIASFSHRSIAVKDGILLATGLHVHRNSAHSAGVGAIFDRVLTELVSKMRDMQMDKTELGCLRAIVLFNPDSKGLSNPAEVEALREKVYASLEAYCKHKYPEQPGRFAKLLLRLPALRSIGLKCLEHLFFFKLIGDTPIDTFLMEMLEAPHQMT
As to the kind of experiment: PPARγ-RXRα heterodimer ligand activity (luciferase reporter, PPARγ:RXRα:4ERPP/CHO-K1 cells). In kind it is cell-based. The note with it: concentration for 50% of maximum fold induction of luciferase, 48 hrs. On the procedure: (PPARγ-RXRα Heterodimer Ligand Activity)
PPARγ:RXRα:4ERPP/CHO-K1 cells obtained in Reference Example 8a were cultured in HAM F12 medium (manufactured by NISSUI SEIYAKU) containing 10% fetal bovine serum [manufactured by Life Technologies, Inc., USA], seeded in a 96-well white plate [manufactured by Corning Coster Corporation, USA] at the density of 2×10^4 cells/well and cultured in a CO2 gas incubator at 37° C. overnight.
After washing the 96-well white plate with PBS (Phosphate-buffered saline), 90 μl of HAM F12 medium containing 0.1% fatty acid-free bovine serum albumin (BSA) and 10 μl of test compound were added, and the cells were cultured in a CO2 gas incubator at 37° C. for 48 hrs. The medium was removed and 40 μl of PicaGene 7.5 (manufactured by Wako Pure Chemical Industries, Ltd.) was added. After stirring, the luciferase activity was determined using Lumistar [manufactured by BMG Labtechnologies GmbH, Germany].
The fold induction was calculated from the luciferase activity of each test compound when the luciferase activity of the non-treatment group is taken as 1. The values of the test compound concentration and the fold induction were analyzed using PRISM 2.01 (produced by GraphPad Software Inc. USA) to calculate the EC50 values, the effective concentration of a test compound for 50% of the maximum fold induction.
Introduction of Human PPARγ- and RXRα-Expression Plasmid and Reporter Plasmid into CHO-K1 Cell and Establishment of Expressed Cell
After a CHO-K1 cell cultured in a tissue culture flask (750 ml) (produced by Corning Costar Corporation, USA) containing HAM F12 medium (produced by NISSUI SEIYAKU) supplemented with 10% fetal bovine serum (produced by Life Technologies, Inc., USA) was scraped by treating with 0.5 g/L trypsin-0.2 g/L EDTA (ethylenediaminetetraacetic acid) (produced by Life Technologies, Inc., USA), the cell was washed with PBS (phosphate-buffered saline) (produced by Life Technologies, Inc., USA), centrifuged (1000 rpm, 5 minutes), and then suspended in PBS. Subsequently, a DNA was introduced into the cell under the conditions shown below using GENE PULSER (produced by Bio-Rad Laboratories, USA).
Namely, to a cuvette having a 0.4 cm gap, added were 8×10^6 cells and 10 μg of plasmid pVgRXR2-hPPARγ obtained in Reference Example 7a and 10 μg of reporter plasmid pGL3-4ERPP-TK neo obtained in Reference Example 4a, which was subjected to electroporation at the voltage of 0.25 kV under the capacitance of 960 μF. Subsequently, the cell was transferred into a HAM F12 medium containing 10% fetal bovine serum and cultured for 24 hours and then the cell was scraped again and centrifuged, and then suspended in HAM F12 medium containing 10% fetal bovine serum supplemented with 500 μg/ml of GENETICIN, (produced by Life Technologies, Inc., USA) and 250 μg /ml of ZEOCIN (produced by Invitrogen, USA). The obtained suspension was diluted to the density of 10^4 cells/ml and inoculated to a 96-well plate (produced by Corning Costar Corporation, USA), which was cultured in a CO2 gas incubator at 37° C., whereby obtaining a GENETICIN- and ZEOCIN-resistant transformant.
Subsequently, after the transformant cell line thus obtained was cultured in a 24-well plate (produced by Corning Costar Corporation, USA), selected was a cell line in which the luciferase was expressed and induced, i.e., PPARγ:RXRα:4ERPP/CHO-K1 cell by the addition of 10 μM pioglitazone hydrochloride.
(In general: In a reporter assay the amount or activity of a reporter protein is the signal.)

Our source for the EC50 and melting point values is patent publication US7241785B2, “Five-membered heterocyclic alkanoic acid derivative” (Takeda Pharmaceutical Company Limited, priority 2001, dated 2007).

As a reminder, the EC50 is the concentration giving half of the maximal effect. High values mean lower potency in that assay, low ones higher potency in that assay. What is called melting point is the temperature, or range, at which the solid turns liquid.

Regarding `Cc1oc(-c2ccccc2)nc1COc1ccc(Sc2nc(-c3ccccc3)c(CCC(=O)O)o2)cc1` [Example 10, 3-[2-[4-(5-methyl-2-phenyl-4-oxazolylmethoxy)phenylthio]-4-phenyl-5-oxazolyl]propionic acid], the melting point was 136 to 137 °C. On PPARγ-RXRα heterodimer, this compound came in with an EC50 of 9.9 nM.
